Drawing on US12091405B2, “Substituted pyrazole compounds as indoleamine 2,3-dioxygenase inhibitors” (Merck Sharp & Dohme LLC, priority 2018, dated 2024), this text covers IC50 for 16 compounds.

The pIC50 is the IC50 on a negative log10 scale, so that one unit is a factor of ten.

pIC50: −log10 of the molar value.

Experiment [1] deals with T1, IDO1 (Homo sapiens, UniProt P14902). Briefly: IDO1 Cellular Assay in HeLa Cells Stimulated with IFNγ. In kind it is cell-based. The note with it: IFNγ 100 ng/mL, 300 uM L-tryptophan, about 48 hours, fluorescence readout, read-out: IDO1 HELA Cell Assay, IC50.
T1 sequence (P14902 whole entry): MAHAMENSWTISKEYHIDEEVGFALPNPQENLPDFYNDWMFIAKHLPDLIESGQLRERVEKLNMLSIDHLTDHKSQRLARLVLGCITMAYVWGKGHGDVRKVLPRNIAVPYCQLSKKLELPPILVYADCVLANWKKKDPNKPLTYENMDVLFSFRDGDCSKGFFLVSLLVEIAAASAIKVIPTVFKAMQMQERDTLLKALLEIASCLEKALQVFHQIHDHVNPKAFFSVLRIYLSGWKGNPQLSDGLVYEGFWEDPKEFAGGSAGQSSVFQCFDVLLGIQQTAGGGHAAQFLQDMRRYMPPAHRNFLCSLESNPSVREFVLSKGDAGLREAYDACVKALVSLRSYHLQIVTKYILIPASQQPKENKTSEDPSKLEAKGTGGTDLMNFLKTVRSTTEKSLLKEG
Experiment [2] has as its target T1, IDO1. Briefly: IDO1 Human Whole Blood Assay. It is filed as cell-based. Further details: Human whole blood was drawn in sodium heparin coated tubes from healthy internal donors; from tissue; host or cells: human whole blood from healthy donors, stimulated with LPS and IFNγ. The note with it: LPS and IFNγ 100 ng/mL, overnight (18 h), kynurenine by LC/MS/MS. How it is done:
IDO1 Human Whole Blood Assay
Compounds to be tested were serially diluted in ten 3-fold steps in DMSO starting from 10 mM. 3 μL of compound dilutions or DMSO alone were then dispensed from the dilution plate into a polypropylene 96-well assay plate containing 97 μL of RPMI medium using an Echo 555 acoustic liquid handler (Labcyte). LPS and IFNγ was prepared in RPMI medium to a 10× of final conc. (1000 ng/mL), final concentration is 100 ng/mL.
Human whole blood was drawn in sodium heparin coated tubes from healthy internal donors. 240 μL of blood was transferred to each of the wells of a v-bottom 96 well plate. 30 μL of compound was transferred from intermediate dilution plate, and incubated for 15 min. 30 μL from stimulants was then transferred to blood and mixed thoroughly. Plate was covered with breathable membrane and incubated at 37° C. for overnight (18 h).
On day 2, isotope labeled standard solutions of kynurenine and tryptophan was made in water at 10× concentration and 30 μL was added to the blood at 3 μM final concentration. The assay plates were centrifuged at 300×G for 10 min with no brake to separate plasma from red blood cells. 60 μL of plasma samples was removed without disturbing red blood cells. Plasma was diluted with RPMI in 1:1 ratio and proteins were precipitated out with two volumes of Acetonitrile. The plates were centrifuged at 4000×G for 60 min. 20 μL of supernatant was carefully transferred to a 384 well plate containing 40 μL of 0.1% formic acid in water and analyzed by LC/MS/MS.
LC/MS/MS analyses were performed using Thermo Fisher's LX4-TSQ Quantum Ultra system. This system consists of four Agilent binary high-performance liquid chromatography (HPLC) pumps and a TSQ Quantum Ultra triple quadrupole MS/MS instrument. For each sample, 5 μL were injected onto an Atlantis T3 column (2.1 mm×150 mm, 3 μm particle size) from Waters. The mobile phase gradient pumped at 0.8 mL/min was used to elute the analytes from the column at 25 EC. The elution started at 0% B increasing linearly to 25% B at 6.5 min, holding at 25% for 1 min, re-equilibrating to 10 min. Mobile phase A consisted of 0.1% formic acid in water. Mobile phase B consisted of 0.1% of formic acid in acetonitrile. Data were acquired in positive mode using a HESI interface. The operational parameters for the TSQ Quantum Ultra instrument were a spray voltage of 4000 V, capillary temperature of 380° C., vaporizer temperature 400° C., shealth gas 60 arbitrary units, Aux gas 20 arbitrary units, tube lens 85 and collision gas 1.2 mTorr. SRM chromatograms of kynurenine (Qi: 209.2>Q3:94.0) and internal standard (Qi: 215.3>Q3:98.2) were collected for 90 sec. The peak area was integrated by Xcalibur Quan software. The ratios between the kynurenine generated in the reaction and 2D6-Kynurenine spiked-in internal standard were used to generate percentage inhibition and IC50 values. Compounds were titrated and IC50's were calculated by 4 parameter sigmoidal curve fitting formula.
The biological activity data of selective compounds using the IDO1 human whole blood assay described above are summarized in the table below.

With `Cc1cccc(C2CCN(C(=O)Cn3nc(C(=O)N4CCC(OCCO)CC4)c4c3CCC4)CC2)c1C` [Example 33, 1-(4-(2,3-dimethylphenyl)piperidin-1-yl)-2-(3-(4-(2-hydroxyethoxy)piperidine-1-carbonyl)-5,6-dihydrocyclopenta[c]pyrazol-1(4H)-yl) ethanone], the pIC50 is 8.96 at IDO1 [1] and 7.51 against IDO1 [2].

As to `Cc1cccc(C2CCN(C(=O)Cn3nc(C(=O)N4CC[C@@H](O)[C@@H](F)C4)c4c3CCCC4)CC2)c1C` [Example 35, 1-(4-(2,3-dimethylphenyl)piperidin-1-yl)-2-(3-((3S,4R)-3-fluoro-4-hydroxypiperidine-1-carbonyl)-4,5,6,7-tetrahydro-1H-indazol-1-yl) ethanone], the values for the pIC50 on IDO1 [1] and against IDO1 [2] were 8.89 and 6.66, respectively.

Turning to `Cc1cccc(C2CCN(C(=O)Cn3nc(C(=O)N4CCC(O)(CF)CC4)c4c3CCCC4)CC2)c1C` [Example 36, 1-(4-(2,3-dimethylphenyl)piperidin-1-yl)-2-(3-(4-(fluoromethyl)-4-hydroxypiperidine-1-carbonyl)-4,5,6,7-tetrahydro-1H-indazol-1-yl) ethanone], the pIC50 on IDO1 [1] was 8.80; on IDO1 [2], 7.29.

With `Cc1cccc(C2CCN(C(=O)Cn3nc(C(=O)N4CC[C@H](O)[C@@H](F)C4)c4c3CCC4)CC2)c1C` [Example 37, 1-(4-(2,3-dimethylphenyl)piperidin-1-yl)-2-(3-((3S,4S)-3-fluoro-4-hydroxypiperidine-1-carbonyl)-5,6-dihydrocyclopenta[c]pyrazol-1(4H)-yl)ethanone], the pIC50 on IDO1 [1] is 8.74; at IDO1 [2], 7.07.

`Cc1cccc(C2CCN(C(=O)Cn3nc(C(=O)N4CCN(C(=O)CO)CC4)c4c3CCCC4)CC2)c1C` [Example 42, 1-(4-(2,3-dimethylphenyl)piperidin-1-yl)-2-(3-(4-(2-hydroxyacetyl)piperazine-1-carbonyl)-4,5,6,7-tetrahydro-1H-indazol-1-yl)ethanone]: the pIC50 on IDO1 [1] was 8.43; on IDO1 [2] it was 6.52.

With `Cc1cccc(C2CCN(C(=O)Cn3nc(C(=O)N4CCO[C@H](CO)C4)c4c3CCC4)CC2)c1C` [Example 43, (S)-1-(4-(2,3-dimethylphenyl)piperidin-1-yl)-2-(3-(2-(hydroxymethyl)morpholine-4-carbonyl)-5,6-dihydrocyclopenta[c]pyrazol-1(4H)-yl) ethanone], the pIC50 was 8.26 on IDO1 [1] and 6.72 against IDO1 [2].

In the case of `Cc1cccc(C2CCN(C(=O)Cn3nc(C(=O)N4CC[C@H](O)[C@H](F)C4)c4c3CCC4)CC2)c1C` [Example 44, 1-(4-(2,3-dimethylphenyl)piperidin-1-yl)-2-(3-((3R,4S)-3-fluoro-4-hydroxypiperidine-1-carbonyl)-5,6-dihydrocyclopenta[c]pyrazol-1(4H)-yl)ethanone], the negative-log IC50 (pIC50) at IDO1 [1] is 8.14; against IDO1 [2], 6.14.

`Cc1cccc(C2CCN(C(=O)Cn3nc(C(=O)N4CC[C@@H](O)[C@@H](F)C4)c4c3CCC4)CC2)c1C` [Example 60, 1-(4-(2,3-dimethylphenyl)piperidin-1-yl)-2-(3-((3S,4R)-3-fluoro-4-hydroxypiperidine-1-carbonyl)-5,6-dihydrocyclopenta[c]pyrazol-1(4H)-yl)ethanone]: the figures for the pIC50 at IDO1 [1] and against IDO1 [2] were 8.46 and 6.31, respectively.

Regarding `Cc1ccccc1C1CCN(C(=O)Cn2nc(C(=O)N3C[C@@H](C)O[C@@H](C)C3)c3c2CCC3)CC1` [Example 62, 2-(3-((2S,6R)-2,6-dimethylmorpholine-4-carbonyl)-5,6-dihydrocyclopenta[c]pyrazol-1(4H)-yl)-1-(4-(o-tolyl)piperidin-1-yl)ethan-1-one], the pIC50 is 8.01 at IDO1 [1] and 6.32 against IDO1 [2].

`Cc1cccc(C2CCN(C(=O)Cn3nc(C(=O)N4C[C@@H](C)O[C@@H](C)C4)c4c3CCC4)CC2)c1C` [Example 64, 2-(3-((2S,6R)-2,6-dimethylmorpholine-4-carbonyl)-5,6-dihydrocyclopenta [c]pyrazol-1(4H)-yl)-1-(4-(2,3-dimethylphenyl)piperidin-1-yl) ethanone]: the results for the pIC50 on IDO1 [1] and on IDO1 [2] were 8.96 and 6.53, respectively.

As to `Cc1cccc(C2CCN(C(=O)Cn3nc(C(=O)N4C[C@@H](C)O[C@@H](C)C4)c4c3CCC4)CC2)c1` [Example 65, 2-(3-((2S,6R)-2,6-dimethylmorpholine-4-carbonyl)-5,6-dihydrocyclopenta [c]pyrazol-1(4H)-yl)-1-(4-(m-tolyl)piperidin-1-yl)ethanone], the pIC50 is 7.80 at IDO1 [1] and 6.19 against IDO1 [2].

As for `Cc1cc(C2CCN(C(=O)Cn3nc(C(=O)N4C[C@@H](C)O[C@@H](C)C4)c4c3CCC4)CC2)ccc1Cl` [Example 81, 1-[4-(4-chloro-3-methylphenyl)piperidin-1-yl]-2-{3-[(2R,6S)-2,6-dimethylmorpholine-4-carbonyl]-5,6-dihydrocyclopenta[c]pyrazol-1(4H)-yl}ethan-1-one], the pIC50 on IDO1 [1] is 8.54; on IDO1 [2] it was 5.88.

Turning to `Cc1c(Cl)cccc1C1CCN(C(=O)Cn2nc(C(=O)N3C[C@@H](C)O[C@@H](C)C3)c3c2CCC3)CC1` [Example 82, 1-[4-(3-chloro-2-methylphenyl)piperidin-1-yl]-2-{3-[(2R,6S)-2,6-dimethylmorpholine-4-carbonyl]-5,6-dihydrocyclopenta[c]pyrazol-1(4H)-yl}ethan-1-one], the pIC50 at IDO1 [1] was 8.46; at IDO1 [2], 6.36.

As to `Cc1c(C2CCN(C(=O)Cn3nc(C(=O)N4C[C@@H](C)O[C@@H](C)C4)c4c3CCC4)CC2)cccc1C(F)(F)F` [Example 83, 2-{3-[(2R,6S)-2,6-dimethylmorpholine-4-carbonyl]-5,6-dihydrocyclopenta[c]pyrazol-1(4H)-yl}-1-{4-[2-methyl-3-(trifluoromethyl)phenyl]piperidin-1-yl}ethan-1-one], the figures for the pIC50 at IDO1 [1] and on IDO1 [2] were 8.38 and 5.73, respectively.

Turning to `Cc1c(F)ccc(C2CCN(C(=O)Cn3nc(C(=O)N4C[C@@H](C)O[C@@H](C)C4)c4c3CCC4)CC2)c1C` [Example 172, 2-{3-[(2R,6S)-2,6-dimethylmorpholine-4-carbonyl]-5,6-dihydrocyclopenta[c]pyrazol-1(4H)-yl}-1-[4-(4-fluoro-2,3-dimethylphenyl)piperidin-1-yl]ethan-1-one], the pIC50 at IDO1 [1] is 8.77; against IDO1 [2], 6.36.

Turning to `Cc1c(F)cccc1C1CCN(C(=O)Cn2nc(C(=O)N3C[C@@H](C)O[C@@H](C)C3)c3c2CCC3)CC1` [Example 173, 2-{3-[(2R,6S)-2,6-dimethylmorpholine-4-carbonyl]-5,6-dihydrocyclopenta[c]pyrazol-1(4H)-yl}-1-[4-(3-fluoro-2-methylphenyl)piperidin-1-yl]ethan-1-one], the pIC50 was 8.19 at IDO1 [1] and 6.57 on IDO1 [2].
